Measured values reported in patent publication US20260207602A1, “EGFR INHIBITORS” (Blueprint Medicines Corporation, priority 2022, published 2026).

Legend:
EGFR L858R = target: T1, EGFR L858R (Homo sapiens, UniProt P00533, L858R); assay: Biochemical EGFR inhibition assay (Caliper mobility shift), EGFR L858R; settings: biochemical Caliper mobility shift assay, EGFR L858R enzyme; read-out: Enz EGFR L858R IC50
T1 construct: purchased SignalChem E10-122BG
Procedure, shortened: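 Mobility-shift readout: phosphorylated and unphosphorylated 5-FAM peptide (2.5 µM) separated electrophoretically. Reactions at room temperature (25 °C), 1.0 mM ATP or ATP Km, HEPES pH 7.5 with MgCl2, Brij-35, DTT and 1.0% DMSO; terminated at 10–20% turnover with 35 mM EDTA. Apparent IC50 fitted.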

EGFR (d746-750) = target: T2, EGFR (d746-750) (Homo sapiens, UniProt P00533, DEL746-750); assay: Biochemical EGFR inhibition assay (Caliper mobility shift), EGFR (d746-750); settings: biochemical Caliper mobility shift assay, EGFR Exon 19-del enzyme; read-out: Enz EGFR Exon 19-del IC50
T2 construct: purchased SignalChem E10-122JG
T2 sequence (P00533 with tags, fused parts or gaps DEL746-750 limits assumed): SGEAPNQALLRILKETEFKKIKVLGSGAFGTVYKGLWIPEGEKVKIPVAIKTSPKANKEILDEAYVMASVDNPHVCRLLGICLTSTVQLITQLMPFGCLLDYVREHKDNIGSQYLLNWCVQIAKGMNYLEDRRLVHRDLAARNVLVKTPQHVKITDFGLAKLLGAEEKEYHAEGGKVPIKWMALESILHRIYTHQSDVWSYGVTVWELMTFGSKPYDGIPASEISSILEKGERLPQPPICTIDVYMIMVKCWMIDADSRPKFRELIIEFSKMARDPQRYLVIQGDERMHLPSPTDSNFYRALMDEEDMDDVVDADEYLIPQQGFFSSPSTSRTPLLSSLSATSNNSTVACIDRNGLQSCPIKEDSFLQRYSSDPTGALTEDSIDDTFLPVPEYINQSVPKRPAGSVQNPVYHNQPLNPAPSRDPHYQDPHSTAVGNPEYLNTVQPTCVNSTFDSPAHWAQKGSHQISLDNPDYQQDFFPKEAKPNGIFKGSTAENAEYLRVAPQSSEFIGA
Protocol: Inhibitory effects of the compounds of the disclosure were measured in biochemical assays that measure the phosphorylation activity of EGFR enzyme phosphorylates 2.5 micromolar 5-FAM-[…]-CONH2 peptide substrate (ProfilerPro Kinase Peptide Substrate 22, PerkinElmer, Part #760366) in the presence of adenosine-5′-triphosphate (ATP) and varying concentrations of the test compound in 100 mM 2-[4-(2-hydroxyethyl)piperazin-1-yl]ethanesulfonic acid (HEPES), pH 7.5, 10 mM MgCl2, 0.015% Brij-35, 1 mM dithiothreitol (DTT), 1.0% dimehylsulfoxide (DMSO). Assays were performed at 1.0 mM ATP or at ATP Km of the EGFR enzymes. Reactions proceeded until between 10% to 20% total peptides were phosphorylated at room temperature (25° C.) and were terminated with 35 mM 2,2′,2″,2′″-(ethane-1,2-diyldinitrilo)tetraacetic acid (EDTA). Product was detected using the Caliper mobility shift detection method where the phosphorylated peptide (product) and substrate were electrophoretically separated and measured. Percent activity was plotted against log concentration of compound and points to generate an apparent IC50. The following enzyme forms of • EGFR were examples that were used in these assays: • EGFR WT (SignalChem, E10-112G) • EGFR L858R (SignalChem, E10-122BG) • EGFR (d746-750) (SignalChem, E10-122JG) • EGFR L858R C797S (SignalChem, E10-122ZG) • EGFR (d746-750) C797S (SignalChem, E10-122TG)

[1] = target: intracellular phosphorylation of EGFR (Tyr1068) in PC-9 cells (Homo sapiens, UniProt P00533, DEL746-750); assay: PC-9 pEGFR AlphaLISA assay; format: cell-based; settings: 4 hours incubation, read-out: Phos EGFR PC9 IC50
intracellular phosphorylation of EGFR (Tyr1068) in PC-9 cells, sequence (P00533 with tags, fused parts or gaps DEL746-750): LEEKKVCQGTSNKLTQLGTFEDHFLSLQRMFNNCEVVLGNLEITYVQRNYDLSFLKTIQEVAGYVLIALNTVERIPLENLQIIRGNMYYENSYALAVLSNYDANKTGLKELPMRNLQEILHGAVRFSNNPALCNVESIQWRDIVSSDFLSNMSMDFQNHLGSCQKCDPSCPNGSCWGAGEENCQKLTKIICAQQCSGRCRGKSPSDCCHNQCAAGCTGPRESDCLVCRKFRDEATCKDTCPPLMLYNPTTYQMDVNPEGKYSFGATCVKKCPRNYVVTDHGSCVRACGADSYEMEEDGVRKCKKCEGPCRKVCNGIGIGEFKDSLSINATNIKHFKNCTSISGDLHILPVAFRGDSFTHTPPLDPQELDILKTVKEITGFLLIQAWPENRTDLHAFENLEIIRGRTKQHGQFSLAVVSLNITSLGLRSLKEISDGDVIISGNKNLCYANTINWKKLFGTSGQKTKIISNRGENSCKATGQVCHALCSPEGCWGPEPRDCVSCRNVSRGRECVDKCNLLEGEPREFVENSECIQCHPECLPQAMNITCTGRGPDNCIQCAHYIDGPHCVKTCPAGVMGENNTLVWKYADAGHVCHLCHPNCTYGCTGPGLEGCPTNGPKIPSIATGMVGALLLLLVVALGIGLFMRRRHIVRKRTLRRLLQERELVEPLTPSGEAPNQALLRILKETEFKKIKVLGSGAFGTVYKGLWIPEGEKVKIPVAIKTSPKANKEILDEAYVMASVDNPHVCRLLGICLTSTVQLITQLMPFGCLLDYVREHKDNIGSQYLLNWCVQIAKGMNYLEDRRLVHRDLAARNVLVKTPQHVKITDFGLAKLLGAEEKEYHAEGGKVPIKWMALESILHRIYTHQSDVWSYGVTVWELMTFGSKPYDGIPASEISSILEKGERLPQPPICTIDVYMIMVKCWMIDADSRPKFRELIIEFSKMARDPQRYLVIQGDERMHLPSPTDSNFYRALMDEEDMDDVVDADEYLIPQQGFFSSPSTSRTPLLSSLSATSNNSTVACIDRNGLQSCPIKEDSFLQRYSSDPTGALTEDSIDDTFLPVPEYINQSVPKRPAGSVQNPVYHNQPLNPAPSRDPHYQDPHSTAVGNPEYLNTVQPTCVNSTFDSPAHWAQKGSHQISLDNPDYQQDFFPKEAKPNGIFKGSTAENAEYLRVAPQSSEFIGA
Procedure, shortened: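 PC-9 cells (EGFR del746-750) in phenol-free DMEM/10% FBS, adhered overnight, then exposed to 10-point 4-fold compound dilutions for 4 h at 37 °C. Lysates assayed for pEGFR Tyr1068 by AlphaLISA SureFire Ultra; IC50 from percent pEGFR inhibition vs log concentration.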

T1 sequence (P00533 25-1210 L858R): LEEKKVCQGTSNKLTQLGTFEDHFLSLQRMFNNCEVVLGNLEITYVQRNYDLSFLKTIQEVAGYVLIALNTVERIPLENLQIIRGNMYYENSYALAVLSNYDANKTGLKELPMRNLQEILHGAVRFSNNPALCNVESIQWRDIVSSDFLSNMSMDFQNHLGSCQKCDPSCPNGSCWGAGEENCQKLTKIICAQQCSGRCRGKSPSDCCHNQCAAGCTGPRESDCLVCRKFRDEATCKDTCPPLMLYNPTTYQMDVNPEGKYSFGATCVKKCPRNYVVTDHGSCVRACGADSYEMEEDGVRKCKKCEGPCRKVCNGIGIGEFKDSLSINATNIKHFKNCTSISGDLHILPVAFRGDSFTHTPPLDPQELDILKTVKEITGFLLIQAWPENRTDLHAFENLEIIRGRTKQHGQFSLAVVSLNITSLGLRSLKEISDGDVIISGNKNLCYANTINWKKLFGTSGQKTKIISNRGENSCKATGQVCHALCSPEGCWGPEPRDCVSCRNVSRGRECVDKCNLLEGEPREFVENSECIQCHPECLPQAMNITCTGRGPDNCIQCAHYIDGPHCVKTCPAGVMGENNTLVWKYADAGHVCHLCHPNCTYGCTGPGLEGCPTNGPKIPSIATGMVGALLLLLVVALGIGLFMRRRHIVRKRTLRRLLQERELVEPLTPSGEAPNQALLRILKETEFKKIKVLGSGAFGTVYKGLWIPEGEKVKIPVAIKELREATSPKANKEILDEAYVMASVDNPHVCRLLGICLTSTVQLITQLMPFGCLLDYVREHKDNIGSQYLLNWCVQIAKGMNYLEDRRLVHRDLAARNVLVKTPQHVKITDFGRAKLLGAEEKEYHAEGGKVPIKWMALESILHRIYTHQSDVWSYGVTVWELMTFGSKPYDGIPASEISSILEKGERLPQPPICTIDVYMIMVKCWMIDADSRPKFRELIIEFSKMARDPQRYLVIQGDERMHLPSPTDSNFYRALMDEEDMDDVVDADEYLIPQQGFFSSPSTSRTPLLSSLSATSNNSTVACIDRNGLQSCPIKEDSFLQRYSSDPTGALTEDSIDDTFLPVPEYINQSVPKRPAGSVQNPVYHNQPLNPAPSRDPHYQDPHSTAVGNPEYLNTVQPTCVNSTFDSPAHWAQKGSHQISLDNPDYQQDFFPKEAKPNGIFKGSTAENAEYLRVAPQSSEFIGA

Structure (SMILES) | IC50 (EGFR L858R) | IC50 (EGFR (d746-750)) | IC50 [1]
COc1nn(C)cc1-c1cc(O[C@@H]2CN(C)C[C@H]2F)c2c(Nc3ccc4ncsc4c3)ncnc2c1 (racemic) [Example 376, N-(5-(((3S,4S)-4-fluoro-1-methylpyrrolidin-3-yl)oxy)-7-(3-methoxy-1-methyl-1H-pyrazol-4-yl)quinazolin-4-yl)benzo[d]thiazol-6-amine and N-(5-(((3R,4R)-4-fluoro-1-methylpyrrolidin-3-yl)oxy)-7-(3-methoxy-1-methyl-1H-pyrazol-4-yl)quinazolin-4-yl)benzo[d]thiazol-6-amine] | ≤ 10 nM | ≤ 10 nM | 10.1 to 50 nM
COc1nn(C)cc1-c1cc(O[C@@H]2COC[C@H]2F)c2c(Nc3ccc4ncsc4c3)ncnc2c1 (racemic) [Example 8, trans-N-(5-((-4-fluorotetrahydrofuran-3-yl)oxy)-7-(3-methoxy-1-methyl-1H-pyrazol-4-yl)quinazolin-4-yl)benzo[d]thiazol-6-amine] | 10.1 to 50 nM | ≤ 10 nM | 10.1 to 50 nM
COc1cc2c(Nc3ccc4ncsc4c3)ncnc2cc1-c1cnn(C)c1 [Example 263, N-(6-methoxy-7-(1-methyl-1H-pyrazol-4-yl)quinazolin-4-yl)benzo[d]thiazol-6-amine] | ≤ 10 nM | ≤ 10 nM | ≤ 10 nM
Cn1cc(-c2cc(OCC(=O)N3CC4(COC4)C3)c3c(Nc4ccc5ncsc5c4)ncnc3c2)cn1 [Example 270, 2-((4-(benzo[d]thiazol-6-ylamino)-7-(1-methyl-1H-pyrazol-4-yl)quinazolin-5-yl)oxy)-1-(2-oxa-6-azaspiro[3.3]heptan-6-yl)ethan-1-one] | ≤ 10 nM | ≤ 10 nM | 10.1 to 50 nM
COc1cc(O[C@H](C)CN(C)C)c2c(Nc3ccc4ncsc4c3F)ncnc2c1 [Example 146, (R)-N-(5-((1-(dimethylamino)propan-2-yl)oxy)-7-methoxyquinazolin-4-yl)-7-fluorobenzo[d]thiazol-6-amine] | 10.1 to 50 nM | ≤ 10 nM | 10.1 to 50 nM
COc1cn(C)nc1-c1cc(O[C@H]2CCCN(C)C2)c2c(Nc3ccc4ncsc4c3F)ncnc2c1 [Example 246, (S)-7-fluoro-N-(7-(4-methoxy-1-methyl-1H-pyrazol-3-yl)-5-((1-methylpiperidin-3-yl)oxy)quinazolin-4-yl)benzo[d]thiazol-6-amine] | ≤ 10 nM | ≤ 10 nM | 10.1 to 50 nM
C[C@@H](Oc1cc(-c2cnn(C)c2)cc2ncnc(Nc3ccc4ncsc4c3)c12)C1CN(C)C1 (single isomer, unassigned) [Example 384] | 10.1 to 50 nM | 10.1 to 50 nM | 10.1 to 50 nM
COc1nn(C)cc1-c1cc(OC2CCN(C)CC2(F)F)c2c(Nc3ccc4ncsc4c3)ncnc2c1 (stereo not drawn) [Example 1, N-(5-((3,3-difluoro-1-methylpiperidin-4-yl)oxy)-7-(3-methoxy-1-methyl-1H-pyrazol-4-yl)quinazolin-4-yl)benzo[d]thiazol-6-amine] | ≤ 10 nM | ≤ 10 nM | ≤ 10 nM
CN1CCC[C@H](Oc2cc(-c3cnn(C)c3)cc3ncnc(Nc4ccc5ncsc5c4F)c23)C1 [Example 69, (S)-7-fluoro-N-(7-(1-methyl-1H-pyrazol-4-yl)-5-((1-methylpiperidin-3-yl)oxy)quinazolin-4-yl)benzo[d]thiazol-6-amine] | ≤ 10 nM | ≤ 10 nM | ≤ 10 nM
C[C@H](CN(C)C)Oc1cc(N2CC[C@@H](C(C)(C)O)C2)cc2ncnc(Nc3ccc4ncsc4c3)c12 [Example 182, 2-((R)-1-(4-(benzo[d]thiazol-6-ylamino)-5-(((R)-1-(dimethylamino)propan-2-yl)oxy)quinazolin-7-yl)pyrrolidin-3-yl)propan-2-ol] | ≤ 10 nM | ≤ 10 nM | ≤ 10 nM
C[C@@H](O)[C@@H](C)Oc1cc(-c2cnn(C)c2)cc2ncnc(Nc3ccc4ncsc4c3)c12 [Example 184, (2R,3R)-3-((4-(benzo[d]thiazol-6-ylamino)-7-(1-methyl-1H-pyrazol-4-yl)quinazolin-5-yl)oxy)butan-2-ol] | ≤ 10 nM | ≤ 10 nM | ≤ 10 nM
COCCN1CCC(Oc2cc(-c3cn(C)nc3OC)cc3ncnc(Nc4ccc5ncsc5c4)c23)CC1 [Example 305, N-(7-(3-methoxy-1-methyl-1H-pyrazol-4-yl)-5-((1-(2-methoxyethyl)piperidin-4-yl)oxy)quinazolin-4-yl)benzo[d]thiazol-6-amine] | ≤ 10 nM | ≤ 10 nM | ≤ 10 nM
CN1CCN(CC#Cc2cc(OC3CCOCC3)c3c(Nc4ccc5ncsc5c4F)ncnc3c2)CC1 [Example A24, 7-fluoro-N-(7-(3-(4-methylpiperazin-1-yl)prop-1-yn-1-yl)-5-((tetrahydro-2H-pyran-4-yl)oxy)quinazolin-4-yl)benzo[d]thiazol-6-amine] | > 50.1 nM | 10.1 to 50 nM | 10.1 to 50 nM
